Measurements from patent US20110028758A1, “Trans-cinnamic acid derivative, its preparation mathod and the use” (priority 2007, published 2011).
≈ marks a conversion by molar mass, not a printed value. Where two headings read alike, the source gives them in different places.

Columns and labels:
human glioma U251 cells = assay: MTT anti-tumor test in vitro, U251; type: cell-based; details: Homo sapiens, U-251, 48 h
Text: (§1) A complete culture medium is used for diluting the above original solution into corresponding concentrations for later use.
(§2) Human cervical carcinoma Hela cells, human hepatoma BEL-7402 cells, mucinous Human epidermoid A549 lung cancer cells, human breast cancer MCF-7/S cells, human glioma U251 cells, and human normal embryonic kidney HEK-293 cells are purchased from USA, American Type Culture Collection (ATCC). All the tumor cells are used the DMEM medium (containing 10% FBS, 100 U/ml penicillin and 100 μg/ml streptomycin) for culturing and subculturing, and HEK-293 cells are using RPMI1640 medium (10% FBS, 100 U/ml penicillin, and 100 μg/ml streptomycin) for culturing and subculturing, wherein the culture condition is in a 5% CO2 incubator at 37° C.
Subculture six kinds of cells, which has a logarithmic growing period, adherent rate about 80%, and in good condition, such as human cervical carcinoma Hela cells, human hepatoma BEL-7402 cells, mucinous Human epidermoid A549 lung cancer cells, human breast cancer MCF-7/S cells, human glioma U251 cells, and human normal embryonic kidney HEK-293 cells. Discard the culture medium, rinse 1-2 times with PBS to remove serum, add 1 ml 0.25% Trypsin-0.01% EDTA (37° C. incubation) to digest for 1-2 minutes, add FBS culture medium to terminate the above digestion, centrifuge at a speed below 800 r/min for 2-3 minutes and discard the supernatant, re-suspended cells in 10% FBS medium, tack the cell suspension liquid for cell counting, adjust the density of the above liquid to 1×10^5/ml, then inoculate to a 96-holes plates (100 μl/hole), and then incubate in 5% CO2 incubator at 37° C. overnight. The next day add above cells to different concentrations of I-a, I-b, I-c and I-d, 100 μl/hole (its final concentration is respectively 30, 60, 120, 240, 480 μg/ml); meanwhile, set up the blank control group (0 μM), and establish 3 holes. Continuing the cultural process, discard the culture medium after 48 hours that the drug has been effected, add 100 μl PBS of 0.5 mg/ml MTT (PH 7.2) into each holes, after 4 hours culture, remove the culture medium by adherent cells express flipping method, add 100 μl of DMSO to each holes, oscillate it by micro-oscillation device for 5 minutes, and measure the OD value at 490 nm wavelength. Repeat the above experiment three times to get an average value. Calculate the inhibition rate (IR %) of the tumor cell proliferation in vitro from different concentrations of I-a, I-b, I-c, I-d by the following formula:
(§3) IR %=(1−ODsampale/ODcontrol)×100%
Use SPSS11.5 software to calculate the half inhibitory concentration IC50 of I-a, I-b, I-c and I-d. The results are shown in Table 2 to illustrate IC50 values (unit: μg/ml) of the four compounds.

[1] = tested on: human normal embryonic kidney HEK-293 cells; assay: MTT test on normal cells, HEK-293; type: cell-based; details: for IC50: Homo sapiens; for inhibitory effect on HEK-293 cells: at concentrations having 50% inhibitory effect on the tumor cells
Text: as §1, §2
Subculture six kinds of cells, which has a logarithmic growing period, adherent rate about 80%, and in good condition, such as human cervical carcinoma Hela cells, human hepatoma BEL-7402 cells, mucinous Human epidermoid A549 lung cancer cells, human breast cancer MCF-7/S cells, human glioma U251 cells, and human normal embryonic kidney HEK-293 cells. […] Repeat the above experiment three times to get an average value.
as §3

[2] = Text: The 180 tumor-bearing mice are divided into 18 groups by the weigh of the mice, wherein each group has 10 mice (half male and half female). The drug delivery methods of each group are shown in Table 3 to illustrate eighteen groups of mice drug delivery situation.
Group 2 is the cyclophosphamide (CTX) group, and the mice of group 2 are only given the cyclophosphamide in the intraperitoneal of the mice on the second day of the tumor-bearing.
Group 3 to 18 groups are given the four compounds respectively, wherein the groups delivered 25 mg/kg drug are tail vein low-dose group, wherein the groups delivered 50 mg/kg drugs are the tail vein medium-dose group, wherein the groups delivered 100 mg/kg drugs are the tail vein high-dose group, wherein the groups delivered 200 mg/kg drugs are the oral enteral group. These mice from group 3 to 18 start the drug delivery on the second day of the tumor-bearing, and delivered once a day for 10 sequent days.
After the drug delivery, weight the mice weight, then execute the mice, and then weight the spleen and thymus weight by electronic weighting scale respectively. The spleen index and thymus index are the weight (mg) of mice spleen, thymus of each group/mice weight (g).

[3] = average of three experiments ± SD
[4] = HEK293, 48 h, HEK- (HEK-293), average of three experiments ± SD, MTT, 48 hours, read-out: IC50 value
[5] = HEK293, 48 h, HEK- (HEK-293), experiment 2, MTT, 48 hours, read-out: IC50 value
[6] = HEK293, 48 h, HEK- (HEK-293), experiment 3, MTT, 48 hours, read-out: IC50 value
[7] = HEK293, text, read-out: HEK-293 cells IC50 values
[8] = HEK293, 48 h, HEK- (HEK-293), experiment 1, MTT, 48 hours, read-out: IC50 value

| Structure (SMILES) | IC50 (human glioma U251 cells; [3]) [µg/mL] | IC50 (human glioma U251 cells; experiment 2) [µg/mL] | IC50 (human glioma U251 cells; experiment 3) [µg/mL] | IC50 [1, 4] [µg/mL] | IC50 [1, 5] [µg/mL] | IC50 [1, 6] [µg/mL] | IC50 [1, 7] [µg/mL] | inhibitory effect on HEK-293 cells [1] | death during drug delivery ([2]; high-dose group, tail vein 100 mg/kg, 10 days) | splenomegaly of the tumor-bearing mice ([2]; mouse, in vivo) | IC50 (human glioma U251 cells; experiment 1) [µg/mL] | IC50 [1, 8] [µg/mL] | effect near the tail vein of the mice and its surrounding tissue ([2]; mouse, in vivo) |
| --- | --- | --- | --- | --- | --- | --- | --- | --- | --- | --- | --- | --- | --- |
| COc1ccc(/C=C/C(=O)O)c(O)c1CC=C(C)C [I-a, (E)-2-hydroxy-4-methoxy-3-isopentenyl-cinnamic acid] | 181 ± 7.98 (≈ 691 µM) | 173 (≈ 660 µM) | 180 (≈ 686 µM) | 404 ± 9.2 (≈ 1540 µM) | 399 (≈ 1520 µM) | 414 (≈ 1580 µM) | 404 ± 9.2 (≈ 1540 µM) | unobvious | does not have any death | no affect | – | – | – |
| COc1ccc(/C=C\C(=O)O)c(OC)c1CC=C(C)C [I-b, (Z)-2,4-dimethoxy-3-isopentenyl-cinnamic acid] | 287 ± 9.58 (≈ 1040 µM) | 284 (≈ 1030 µM) | 298 (≈ 1080 µM) | 365 ± 6.14 (≈ 1320 µM) | 371 (≈ 1340 µM) | 366 (≈ 1320 µM) | – | – | – | – | 277 (≈ 1000 µM) | 358 (≈ 1300 µM) | – |
| COc1ccc(/C=C/C(=O)O)c(OC)c1CC=C(C)C [I-c, (E)-2,4-dimethoxy-3-isopentenyl-cinnamic acid] | 195 ± 7.31 (≈ 704 µM) | 192 (≈ 695 µM) | 188 (≈ 680 µM) | 369 ± 13.6 (≈ 1340 µM) | 367 (≈ 1330 µM) | 356 (≈ 1290 µM) | 369 ± 13.6 (≈ 1340 µM) | unobvious | – | can cause the splenomegaly | 202 (≈ 731 µM) | 383 (≈ 1390 µM) | irritation or corrosive |
